Assay results from ChEMBL document CHEMBL1201862, “PubChem BioAssay data set” (2004).
The source made the active and inactive calls.

What was measured:
[1] = system: HEK293; experiment: cells; conditions: Homo sapiens
[2] = system: HEK293; experiment: cells; conditions: Homo sapiens; remark: listed apart in the source
[3] = biological target: Beta-galactosidase (Escherichia coli, UniProt Q8VNN2); experiment: PubChem AID 485352; format: functional
[4] = biological target: Type-1 angiotensin II receptor (Homo sapiens, UniProt P30556); experiment: antagonism of angiotensin II type 1 receptor – cell-based, uHTS hits, selectivity assay for APJ receptor antagonist project, dose response (AID 463214); format: functional;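 further: antagonist potency against angiotensin II stimulated AT1 response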
Chain of Type-1 angiotensin II receptor (P30556 whole entry): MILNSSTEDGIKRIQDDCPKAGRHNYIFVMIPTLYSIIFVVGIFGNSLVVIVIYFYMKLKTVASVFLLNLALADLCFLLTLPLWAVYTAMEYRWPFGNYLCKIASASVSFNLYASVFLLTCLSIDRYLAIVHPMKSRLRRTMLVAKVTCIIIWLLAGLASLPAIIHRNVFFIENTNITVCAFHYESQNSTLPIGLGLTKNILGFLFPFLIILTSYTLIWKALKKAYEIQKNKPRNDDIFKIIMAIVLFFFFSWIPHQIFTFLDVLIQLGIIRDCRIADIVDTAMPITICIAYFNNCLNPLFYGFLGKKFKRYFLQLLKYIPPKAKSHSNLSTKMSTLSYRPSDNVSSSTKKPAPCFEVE

[5] = biological target: Beta-2 adrenergic receptor (Homo sapiens, UniProt P07550); experiment: ADRB2 activation measured by internalization – cell-based, FAP fluorogen, flow cytometry, cherry pick 1, dose response (AID 588763); format: functional
Chain of Beta-2 adrenergic receptor (P07550 whole entry): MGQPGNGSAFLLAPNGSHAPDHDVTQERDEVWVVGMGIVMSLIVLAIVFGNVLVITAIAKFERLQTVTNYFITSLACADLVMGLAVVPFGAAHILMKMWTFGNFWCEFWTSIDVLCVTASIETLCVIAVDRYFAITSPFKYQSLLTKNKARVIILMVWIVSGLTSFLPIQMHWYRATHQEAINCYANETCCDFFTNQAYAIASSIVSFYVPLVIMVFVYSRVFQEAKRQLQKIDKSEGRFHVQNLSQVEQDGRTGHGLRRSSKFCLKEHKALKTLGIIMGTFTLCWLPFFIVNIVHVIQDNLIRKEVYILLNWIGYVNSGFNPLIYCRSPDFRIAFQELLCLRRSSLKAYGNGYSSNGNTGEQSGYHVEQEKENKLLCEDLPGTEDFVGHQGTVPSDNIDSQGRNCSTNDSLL

[6] = biological target: Glycogen synthase kinase-3 alpha (Homo sapiens, UniProt P49840); experiment: Inhibition of Human GSK-3 alpha Activity Measured in Biochemical System Using Microfluidics - 2063-06_Inhibitor_Dose_DryPowder_Activity. [Related pubchem assays (depositor defined):AID2709]
Chain of Glycogen synthase kinase-3 alpha (P49840 whole entry): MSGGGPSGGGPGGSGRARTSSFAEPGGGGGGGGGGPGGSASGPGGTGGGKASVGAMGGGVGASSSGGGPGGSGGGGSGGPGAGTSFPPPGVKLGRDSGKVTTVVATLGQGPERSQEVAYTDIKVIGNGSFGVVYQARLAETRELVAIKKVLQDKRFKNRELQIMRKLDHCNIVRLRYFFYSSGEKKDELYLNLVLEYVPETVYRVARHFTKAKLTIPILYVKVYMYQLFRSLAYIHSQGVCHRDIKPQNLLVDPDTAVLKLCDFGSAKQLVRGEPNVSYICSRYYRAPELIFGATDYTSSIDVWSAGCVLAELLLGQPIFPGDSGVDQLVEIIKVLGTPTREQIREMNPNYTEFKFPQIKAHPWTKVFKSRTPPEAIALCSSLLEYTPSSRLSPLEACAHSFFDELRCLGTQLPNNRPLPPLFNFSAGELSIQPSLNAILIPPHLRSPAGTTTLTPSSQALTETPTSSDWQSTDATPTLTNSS

[7] = Luminescence Cell-Based Dose Response HTS to Identify Inhibitors of 5'UTR Stem-Loop Driven Prion Protein mRNA Translation in H4 Neuroglioblastoma Cells. [Related pubchem assays: 1827 (Project Summary), 1813 (Primary HTS)]; format: functional
[8] = luciferase reporter signal suppression in cells – H4 neuroglioma cells, luminescence, dose response (AID 1990); format: functional, cell-based
[9] = alpha-synuclein stem-loop luciferase translation blockers – H4 neuroglioma cells, luminescence, confirmation (AID 1988); format: functional, cell-based
[10] = biological target: Glycogen synthase kinase-3 beta (Homo sapiens, UniProt P49841); experiment: Inhibition of Human GSK-3 beta Activity Measured in Biochemical System Using Microfluidics - 2063-05_Inhibitor_Dose_DryPowder_Activity. [Related pubchem assays (depositor defined):AID2709]
Chain of Glycogen synthase kinase-3 beta (P49841 whole entry): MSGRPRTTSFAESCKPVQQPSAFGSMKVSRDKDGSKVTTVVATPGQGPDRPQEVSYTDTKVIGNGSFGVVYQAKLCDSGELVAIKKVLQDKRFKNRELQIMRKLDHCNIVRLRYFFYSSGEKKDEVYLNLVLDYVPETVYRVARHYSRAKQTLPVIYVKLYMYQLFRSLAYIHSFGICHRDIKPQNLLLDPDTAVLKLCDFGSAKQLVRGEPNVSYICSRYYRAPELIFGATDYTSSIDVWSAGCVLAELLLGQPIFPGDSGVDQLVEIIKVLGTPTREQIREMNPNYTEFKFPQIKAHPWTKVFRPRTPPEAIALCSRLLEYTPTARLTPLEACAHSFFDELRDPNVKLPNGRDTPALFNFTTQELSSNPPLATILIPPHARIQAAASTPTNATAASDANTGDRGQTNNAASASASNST

[11] = biological target: Cytochrome P450 2D6 (Homo sapiens, UniProt P10635);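 further: CYP2D6 member of a cytochrome P450 panel assay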
Chain of Cytochrome P450 2D6 (P10635 whole entry): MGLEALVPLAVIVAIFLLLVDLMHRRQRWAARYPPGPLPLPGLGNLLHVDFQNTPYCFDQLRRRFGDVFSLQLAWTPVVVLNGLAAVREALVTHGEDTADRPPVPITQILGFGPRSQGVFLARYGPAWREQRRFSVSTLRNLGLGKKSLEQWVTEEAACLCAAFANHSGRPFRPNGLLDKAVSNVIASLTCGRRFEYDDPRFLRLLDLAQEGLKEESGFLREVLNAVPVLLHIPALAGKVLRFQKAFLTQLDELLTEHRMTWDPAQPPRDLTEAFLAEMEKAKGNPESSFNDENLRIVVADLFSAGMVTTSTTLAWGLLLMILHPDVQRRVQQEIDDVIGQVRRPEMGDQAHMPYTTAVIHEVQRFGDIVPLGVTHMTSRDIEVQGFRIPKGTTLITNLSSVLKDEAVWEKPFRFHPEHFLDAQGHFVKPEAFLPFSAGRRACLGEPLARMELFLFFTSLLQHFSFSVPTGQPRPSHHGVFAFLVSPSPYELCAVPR

[12] = biological target: T1, Cytochrome P450 1A2 (Homo sapiens, UniProt P05177);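 further: PubChem cytochrome P450 panel assay, CYP1A2 panel member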
T1 sequence (P05177 whole entry): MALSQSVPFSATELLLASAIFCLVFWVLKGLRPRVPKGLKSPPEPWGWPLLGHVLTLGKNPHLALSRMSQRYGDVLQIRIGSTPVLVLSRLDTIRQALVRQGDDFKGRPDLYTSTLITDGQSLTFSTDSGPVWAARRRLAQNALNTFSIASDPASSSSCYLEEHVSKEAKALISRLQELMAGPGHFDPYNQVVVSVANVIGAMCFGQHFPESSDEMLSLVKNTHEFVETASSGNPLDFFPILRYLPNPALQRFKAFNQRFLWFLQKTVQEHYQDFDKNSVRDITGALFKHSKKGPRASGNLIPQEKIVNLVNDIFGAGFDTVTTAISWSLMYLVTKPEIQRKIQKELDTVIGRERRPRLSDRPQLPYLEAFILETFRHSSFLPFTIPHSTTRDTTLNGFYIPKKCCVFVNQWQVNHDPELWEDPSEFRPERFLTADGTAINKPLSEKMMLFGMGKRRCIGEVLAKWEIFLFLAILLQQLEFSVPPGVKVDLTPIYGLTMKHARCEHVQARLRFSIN

[13] = biological target: T2, Histone-lysine N-methyltransferase NSD2 (Homo sapiens, UniProt O96028); format: biochemical
T2 sequence (O96028 whole entry): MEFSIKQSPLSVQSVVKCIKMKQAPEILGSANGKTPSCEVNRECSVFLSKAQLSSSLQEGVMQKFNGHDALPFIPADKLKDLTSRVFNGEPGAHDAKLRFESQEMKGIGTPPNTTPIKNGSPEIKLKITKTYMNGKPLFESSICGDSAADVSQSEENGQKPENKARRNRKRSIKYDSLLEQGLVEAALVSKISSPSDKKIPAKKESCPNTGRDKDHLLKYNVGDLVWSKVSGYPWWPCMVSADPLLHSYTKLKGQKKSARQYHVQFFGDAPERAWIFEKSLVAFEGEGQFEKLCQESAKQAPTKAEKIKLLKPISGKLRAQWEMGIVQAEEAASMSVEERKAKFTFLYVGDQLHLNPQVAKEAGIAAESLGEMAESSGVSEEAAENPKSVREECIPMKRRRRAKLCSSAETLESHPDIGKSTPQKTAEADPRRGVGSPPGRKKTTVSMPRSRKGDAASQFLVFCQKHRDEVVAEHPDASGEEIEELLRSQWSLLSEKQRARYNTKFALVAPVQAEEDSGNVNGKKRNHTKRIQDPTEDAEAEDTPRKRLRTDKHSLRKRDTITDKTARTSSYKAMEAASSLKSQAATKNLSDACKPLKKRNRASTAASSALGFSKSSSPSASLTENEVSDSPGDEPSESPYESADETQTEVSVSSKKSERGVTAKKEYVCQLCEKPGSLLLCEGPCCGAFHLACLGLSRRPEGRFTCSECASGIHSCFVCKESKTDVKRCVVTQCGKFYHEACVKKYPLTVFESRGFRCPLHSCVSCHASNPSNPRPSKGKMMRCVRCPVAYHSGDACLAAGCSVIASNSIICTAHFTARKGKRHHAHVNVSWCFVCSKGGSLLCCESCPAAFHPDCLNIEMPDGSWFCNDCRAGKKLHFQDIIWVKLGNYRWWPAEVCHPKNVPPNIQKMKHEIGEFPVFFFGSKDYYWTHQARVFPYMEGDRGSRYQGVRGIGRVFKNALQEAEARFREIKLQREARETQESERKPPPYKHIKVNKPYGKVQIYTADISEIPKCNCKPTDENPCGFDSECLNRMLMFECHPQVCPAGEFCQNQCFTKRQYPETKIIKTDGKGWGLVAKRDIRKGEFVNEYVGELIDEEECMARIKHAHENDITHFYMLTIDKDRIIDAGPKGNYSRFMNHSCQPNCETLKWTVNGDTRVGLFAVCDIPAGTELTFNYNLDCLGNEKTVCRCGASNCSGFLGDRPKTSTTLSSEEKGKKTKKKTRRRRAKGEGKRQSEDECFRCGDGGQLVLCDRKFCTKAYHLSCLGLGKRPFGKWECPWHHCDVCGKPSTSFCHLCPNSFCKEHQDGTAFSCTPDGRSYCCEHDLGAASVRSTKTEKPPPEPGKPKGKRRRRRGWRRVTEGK

[14] = biological target: Phospholipase D2 (Homo sapiens, UniProt O14939); experiment: cellular phospholipase D2 inhibition IC50 – cell-based, dose response (AID 602147); format: functional;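 further: cellular assay in HEK293 cells overexpressing GFP-tagged PLD2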
Chain of Phospholipase D2 (O14939 whole entry): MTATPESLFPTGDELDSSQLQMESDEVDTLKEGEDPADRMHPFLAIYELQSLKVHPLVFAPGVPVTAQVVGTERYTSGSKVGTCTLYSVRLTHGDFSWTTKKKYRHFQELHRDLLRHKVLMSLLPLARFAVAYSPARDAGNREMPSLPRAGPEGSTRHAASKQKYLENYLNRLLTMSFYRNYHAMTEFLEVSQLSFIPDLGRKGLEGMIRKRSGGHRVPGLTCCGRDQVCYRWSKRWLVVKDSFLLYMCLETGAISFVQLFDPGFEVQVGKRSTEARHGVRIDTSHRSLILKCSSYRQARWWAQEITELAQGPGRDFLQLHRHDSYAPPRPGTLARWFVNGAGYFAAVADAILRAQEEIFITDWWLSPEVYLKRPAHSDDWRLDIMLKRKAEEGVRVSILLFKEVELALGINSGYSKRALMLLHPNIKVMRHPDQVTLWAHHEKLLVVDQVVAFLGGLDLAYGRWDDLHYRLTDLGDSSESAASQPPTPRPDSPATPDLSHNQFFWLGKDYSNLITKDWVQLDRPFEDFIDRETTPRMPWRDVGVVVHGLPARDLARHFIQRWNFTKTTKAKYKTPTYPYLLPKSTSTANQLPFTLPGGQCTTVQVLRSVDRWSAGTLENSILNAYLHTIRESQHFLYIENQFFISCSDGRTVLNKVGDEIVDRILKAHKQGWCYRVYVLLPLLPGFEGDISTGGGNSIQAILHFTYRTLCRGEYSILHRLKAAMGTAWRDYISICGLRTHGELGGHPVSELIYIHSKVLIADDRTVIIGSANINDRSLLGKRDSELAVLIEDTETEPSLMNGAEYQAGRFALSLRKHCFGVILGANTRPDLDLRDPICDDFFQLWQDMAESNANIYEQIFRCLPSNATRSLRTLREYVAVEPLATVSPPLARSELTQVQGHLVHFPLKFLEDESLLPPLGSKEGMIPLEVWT

[15] = biological target: T3, Phospholipase D1 (Homo sapiens, UniProt Q13393); experiment: cellular phospholipase D1 inhibition IC50 – cell-based, dose response (AID 602151); format: functional;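 further: cellular PLD1 assay in Calu-1 cells stimulated with PMA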
T3 sequence (Q13393 whole entry): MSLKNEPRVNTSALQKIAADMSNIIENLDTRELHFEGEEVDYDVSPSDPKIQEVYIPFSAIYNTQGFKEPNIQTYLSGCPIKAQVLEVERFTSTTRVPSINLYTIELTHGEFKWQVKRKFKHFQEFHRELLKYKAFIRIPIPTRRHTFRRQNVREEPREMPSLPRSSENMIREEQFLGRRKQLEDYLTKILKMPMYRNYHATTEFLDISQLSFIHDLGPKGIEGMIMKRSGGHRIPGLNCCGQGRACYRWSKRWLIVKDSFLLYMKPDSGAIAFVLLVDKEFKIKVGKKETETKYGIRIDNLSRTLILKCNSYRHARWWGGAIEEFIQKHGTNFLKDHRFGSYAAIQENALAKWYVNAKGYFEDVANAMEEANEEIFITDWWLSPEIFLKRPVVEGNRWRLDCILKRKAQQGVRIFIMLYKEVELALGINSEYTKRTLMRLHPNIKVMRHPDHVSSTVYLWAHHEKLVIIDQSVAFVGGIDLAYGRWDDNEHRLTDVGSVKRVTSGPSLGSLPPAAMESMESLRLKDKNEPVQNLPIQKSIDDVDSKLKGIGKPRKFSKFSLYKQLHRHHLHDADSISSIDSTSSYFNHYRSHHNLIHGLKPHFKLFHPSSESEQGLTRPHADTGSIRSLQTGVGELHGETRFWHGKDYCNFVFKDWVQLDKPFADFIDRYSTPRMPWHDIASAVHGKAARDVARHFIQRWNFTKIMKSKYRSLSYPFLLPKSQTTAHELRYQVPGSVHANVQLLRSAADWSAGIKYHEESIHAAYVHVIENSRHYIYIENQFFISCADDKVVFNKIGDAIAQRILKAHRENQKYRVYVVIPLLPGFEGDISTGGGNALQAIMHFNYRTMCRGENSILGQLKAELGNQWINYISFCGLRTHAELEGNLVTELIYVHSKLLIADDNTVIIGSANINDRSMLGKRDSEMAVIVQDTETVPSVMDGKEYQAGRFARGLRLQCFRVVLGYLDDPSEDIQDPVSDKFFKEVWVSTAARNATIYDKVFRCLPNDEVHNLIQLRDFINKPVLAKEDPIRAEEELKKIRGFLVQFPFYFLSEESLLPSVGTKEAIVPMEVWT

[16] = biological target: Hexokinase-1 (Homo sapiens, UniProt P19367); experiment: SAR analysis of small molecule inhibitors of hexokinase domain containing I (HKDC1) in the hexokinase 1 selectivity assay. [Related pubchem assays (depositor defined):AID493160, AID493190]; format: functional
Chain of Hexokinase-1 (P19367 whole entry, the tested form may be a part): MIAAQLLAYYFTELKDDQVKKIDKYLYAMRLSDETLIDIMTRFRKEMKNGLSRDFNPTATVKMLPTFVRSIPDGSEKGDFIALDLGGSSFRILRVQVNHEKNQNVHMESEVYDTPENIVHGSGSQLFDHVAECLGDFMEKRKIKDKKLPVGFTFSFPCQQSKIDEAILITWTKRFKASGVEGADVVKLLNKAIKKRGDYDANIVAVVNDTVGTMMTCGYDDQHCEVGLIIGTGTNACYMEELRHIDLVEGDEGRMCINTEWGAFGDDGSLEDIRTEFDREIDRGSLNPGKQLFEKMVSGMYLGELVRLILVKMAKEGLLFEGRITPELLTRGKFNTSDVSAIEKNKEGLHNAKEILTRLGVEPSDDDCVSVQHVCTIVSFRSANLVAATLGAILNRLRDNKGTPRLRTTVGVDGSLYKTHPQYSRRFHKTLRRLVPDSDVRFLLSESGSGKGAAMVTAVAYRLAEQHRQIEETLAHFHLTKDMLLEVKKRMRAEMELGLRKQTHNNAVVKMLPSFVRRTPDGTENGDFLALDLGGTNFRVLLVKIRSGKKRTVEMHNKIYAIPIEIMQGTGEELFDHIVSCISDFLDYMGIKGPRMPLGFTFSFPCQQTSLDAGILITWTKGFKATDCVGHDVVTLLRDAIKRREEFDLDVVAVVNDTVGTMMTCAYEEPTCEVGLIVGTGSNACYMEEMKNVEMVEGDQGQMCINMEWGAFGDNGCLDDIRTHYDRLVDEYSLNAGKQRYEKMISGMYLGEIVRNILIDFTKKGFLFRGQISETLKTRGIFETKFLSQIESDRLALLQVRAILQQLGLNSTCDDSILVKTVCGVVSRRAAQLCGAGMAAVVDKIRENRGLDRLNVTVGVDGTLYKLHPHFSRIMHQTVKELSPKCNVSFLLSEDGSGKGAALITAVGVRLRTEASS

[17] = biological target: T4, Hexokinase HKDC1 (Homo sapiens, UniProt Q2TB90); experiment: SAR analysis of small molecule inhibitors of hexokinase domain containing I (HKDC1). [Related pubchem assays (depositor defined):AID493160, AID493190]; format: functional
T4 sequence (Q2TB90 whole entry): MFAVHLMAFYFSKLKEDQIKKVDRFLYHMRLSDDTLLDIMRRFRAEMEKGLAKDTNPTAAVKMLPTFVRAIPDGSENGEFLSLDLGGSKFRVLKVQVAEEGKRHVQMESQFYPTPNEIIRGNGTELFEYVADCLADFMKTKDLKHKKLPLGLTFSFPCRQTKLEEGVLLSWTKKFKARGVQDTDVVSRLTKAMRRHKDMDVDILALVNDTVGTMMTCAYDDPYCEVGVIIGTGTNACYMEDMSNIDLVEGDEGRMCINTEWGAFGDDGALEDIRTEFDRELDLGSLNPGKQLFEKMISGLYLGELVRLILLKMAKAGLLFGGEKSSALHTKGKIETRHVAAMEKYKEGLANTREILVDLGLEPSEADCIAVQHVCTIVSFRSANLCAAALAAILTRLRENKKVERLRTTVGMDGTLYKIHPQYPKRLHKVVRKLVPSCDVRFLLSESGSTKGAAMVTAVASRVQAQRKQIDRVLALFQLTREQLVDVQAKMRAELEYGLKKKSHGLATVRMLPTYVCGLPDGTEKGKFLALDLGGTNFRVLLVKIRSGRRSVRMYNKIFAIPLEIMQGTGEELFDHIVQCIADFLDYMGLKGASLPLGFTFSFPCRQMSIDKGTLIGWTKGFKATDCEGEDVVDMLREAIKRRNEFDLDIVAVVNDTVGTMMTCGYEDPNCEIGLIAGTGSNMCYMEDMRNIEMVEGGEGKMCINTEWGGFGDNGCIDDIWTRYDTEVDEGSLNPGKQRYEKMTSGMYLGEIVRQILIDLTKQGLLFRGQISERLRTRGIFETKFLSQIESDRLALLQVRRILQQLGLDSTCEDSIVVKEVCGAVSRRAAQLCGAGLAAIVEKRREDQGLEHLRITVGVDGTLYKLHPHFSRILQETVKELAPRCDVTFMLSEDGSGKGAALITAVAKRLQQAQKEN

[18] = biological target: Dual specificity tyrosine-phosphorylation-regulated kinase 1A (Rattus norvegicus, UniProt Q63470); format: biochemical, Homo sapiens

Chain of Beta-galactosidase (Q8VNN2 whole entry): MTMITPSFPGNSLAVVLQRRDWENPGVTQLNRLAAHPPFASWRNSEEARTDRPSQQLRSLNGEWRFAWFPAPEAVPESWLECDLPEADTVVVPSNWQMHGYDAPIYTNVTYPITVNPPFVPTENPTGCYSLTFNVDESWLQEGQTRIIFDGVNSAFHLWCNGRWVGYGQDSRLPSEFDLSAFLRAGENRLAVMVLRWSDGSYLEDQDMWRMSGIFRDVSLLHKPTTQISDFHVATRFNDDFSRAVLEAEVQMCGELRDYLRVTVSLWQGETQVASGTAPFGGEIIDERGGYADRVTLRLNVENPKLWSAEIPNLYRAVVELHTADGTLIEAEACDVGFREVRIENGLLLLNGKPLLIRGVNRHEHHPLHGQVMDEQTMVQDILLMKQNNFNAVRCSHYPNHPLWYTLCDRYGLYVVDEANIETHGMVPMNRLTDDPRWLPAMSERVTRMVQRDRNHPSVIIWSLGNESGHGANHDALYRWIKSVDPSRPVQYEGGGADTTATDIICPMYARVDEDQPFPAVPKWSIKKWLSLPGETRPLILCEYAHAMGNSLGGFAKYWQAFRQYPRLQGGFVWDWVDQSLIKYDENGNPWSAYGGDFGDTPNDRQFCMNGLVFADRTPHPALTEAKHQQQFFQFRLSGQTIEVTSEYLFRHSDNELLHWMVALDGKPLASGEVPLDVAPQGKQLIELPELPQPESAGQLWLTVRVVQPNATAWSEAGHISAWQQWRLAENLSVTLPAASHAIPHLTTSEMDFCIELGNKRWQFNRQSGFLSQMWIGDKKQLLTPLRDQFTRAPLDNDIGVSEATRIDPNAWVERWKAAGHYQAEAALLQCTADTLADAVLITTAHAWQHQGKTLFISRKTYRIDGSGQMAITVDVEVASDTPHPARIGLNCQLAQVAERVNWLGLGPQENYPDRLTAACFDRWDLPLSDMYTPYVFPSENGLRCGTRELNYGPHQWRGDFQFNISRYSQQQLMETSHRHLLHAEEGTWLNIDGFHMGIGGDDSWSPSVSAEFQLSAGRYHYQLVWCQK

For `COc1ccc(N2C(=O)CC(N(CCc3ccc(OC)c(OC)c3)C(S)=Nc3ccccc3)C2=O)cc1` (stereo not drawn), the EC50 [1] was > 59.6 µM (inactive) and the EC50 [2] was > 59.6 µM (inactive).
In the case of `O=c1c2cc(Br)ccc2[nH]c(=S)n1Cc1ccccn1`, the EC50 [3] is reported as > 40 µM (inactive) and the IC50 [4] is reported as 29.7 µM (not active).
With `CC(=O)c1ccc(OCc2cc(C(=O)N(C)CCOc3ccc(C)cc3)no2)cc1` the EC50 [5] was 1.91 µM (active).
With `C=CCNc1nc(N)c([N+](=O)[O-])c(Nc2ccccc2OC)n1` the AC50 [6] was 0.388 µM (active), the EC50 [7] was 11.7 µM (active) and the EC50 [8] was 11.4 µM (active). The EC50 [9] was 14.2 µM (active) and the AC50 [10] was 0.0544 µM (active).
In the case of `c1ccc2c(CSc3nnc(-c4ccncc4)o3)cccc2c1`, the AC50 [6] is reported as 2.93 µM (active), the AC50 [11] is reported as 0.501 µM (inconclusive) and the AC50 [10] is reported as 0.143 µM (active). For the same compound, the AC50 [12] was 3.16 µM (inconclusive).
In the case of `NC1(C(=O)O)CSSC1`, the AC50 [13] is reported as 14.5 µM (active), the EC50 [1] is reported as > 59.8 µM (inactive) and the EC50 [2] is reported as > 59.8 µM (inactive).
With `C[C@H](CN1CCC2(CC1)C(=O)NCN2c1ccccc1)NC(=O)c1cc(Br)c(Br)o1` the IC50 [14] was 2.3 µM (active) and the IC50 [15] was 0.33 µM (active).
With `COc1ccc(CNc2cc3n(c(=O)n2)CCc2cc(OC)c(OC)cc2-3)cc1` the IC50 [16] was > 80 µM (inactive) and the IC50 [17] was > 80 µM (inactive).
For `O=C(NCCN1CCC(n2c(=O)[nH]c3ccc(F)cc32)CC1)c1cccc2c1C(=O)c1ccccc1-2`, the IC50 [14] was 0.17 µM (active) and the IC50 [15] was 0.007 µM (active).
In the case of `O=S(=O)(Nc1cccc2ccccc12)c1ccc(Cl)cc1`, the IC50 [16] is reported as > 80 µM (inactive) and the IC50 [17] is reported as > 80 µM (inactive).
In the case of `Cc1[nH]n(C(N)=S)c(=O)c1/N=N/c1ccc([N+](=O)[O-])cc1Cl`, the EC50 [3] is reported as > 40 µM (inactive) and the IC50 [4] is reported as > 40 µM (not active).
For `OC[C@H]1O[C@@H](n2cnc3cc(Cl)c(Cl)cc32)[C@H](O)[C@@H]1O` [DICHLORORIBOBENZIMIDAZOLE], the AC50 [18] was 3.76 µM (active).
